conditions: not given

Compound	boiling point	melting point	ready biodegradability	log10 vapour pressure (mmHg)	log10 Henry constant (atm·m³/mol)	log10 Koa	log10 Koc (L/kg)
C=CCc1ccccc1C	182 °C	–	–	–	–	–	–
CCCCCCN(C)C(=O)COC(=O)c1ccccc1	–	100 °C	–	–	–	–	–
CCCCCCCC(=O)N(CCO)CCO	–	–	readily biodegradable	–	–	–	–
Nc1ccc(N)cc1	267 °C	146 °C	not readily biodegradable	–	–	–	–
ICc1ccccc1	–	24.5 °C	–	-0.903	–	–	–
CC1CNCCN1 (stereo unspecified)	153 °C	62 °C	–	–	–	–	–
O=C(Cl)C(F)(F)C(F)(F)C(F)(F)C(F)(F)C(F)(F)C(F)(F)C(F)(F)F	131 °C	–	–	–	–	–	–
CCCCOCC(C)C	151 °C	–	–	–	–	–	–
C/C(=N/Nc1nc(C)cc(C)n1)c1ccccc1C	–	176 °C	–	-7.51	–	–	–
CCCCC(CC)COP(=O)(OCC(CC)CCCC)OCC(CC)CCCC (stereo unspecified)	–	-74 °C	not readily biodegradable	-7.08	–	–	–
C=C(CC)C(C)C	89 °C	–	–	–	–	–	–
O=[N+]([O-])c1cccc(F)c1	199 °C	41 °C	–	–	–	–	–
CC(C)(C)O	82.4 °C	25.4 °C	not readily biodegradable	1.61	-5.04	3.5	–
BrC[C@@H]1CCCO1	170 °C	–	–	–	–	–	–
FC(F)(Cl)Cl	-29.8 °C	-158 °C	not readily biodegradable	3.69	-0.465	–	–
CCCCCc1ccc2c(c1)C(=O)c1ccccc1C2=O	–	–	not readily biodegradable	–	–	–	–
N#CSCCl	185 °C	–	–	–	–	–	–
CCCCCCCCCCCCC=O	–	14 °C	–	–	–	–	–
CN1CCN(C2=Nc3ccccc3Cc3ccccc32)CC1	–	137 °C	–	–	–	–	–

Compound	boiling point	melting point	ready biodegradability	log10 vapour pressure (mmHg)	log10 Henry constant (atm·m³/mol)	log10 Koa	log10 Koc (L/kg)
c1ccc([Se]c2ccccc2)cc1	302 °C	2.5 °C	–	–	–	–	–
CC(C)C1=CC(O)C(C)CC1 (stereo unspecified)	220 °C	–	–	–	–	–	–
CN(C)CCO	134 °C	-59 °C	readily biodegradable	0.502	–	–	–
CCOP(=S)(Oc1ccc(Cl)cc1Cl)c1ccccc1 (stereo unspecified)	–	–	not readily biodegradable	–	–	–	–
CC(=O)C=NO	–	69 °C	–	–	–	–	–
CC(=O)OCC(=O)[C@@]12OC(C)(C)O[C@@H]1C[C@H]1[C@@H]3CC(C=O)=C4C=C(OCCCl)CC[C@]4(C)[C@@]3(F)[C@@H](O)C[C@@]12C	–	181 °C	–	–	–	–	–
Cc1nonc1C	156 °C	-7 °C	–	–	–	–	–
O=C1C[C@@H]2OCC=C3CN4CC[C@]56c7ccccc7N1[C@H]5[C@H]2[C@H]3C[C@H]46	–	287 °C	–	–	–	–	–
C=Cc1c(C)cc(C)cc1C	209 °C	-37 °C	–	–	–	–	–
OCc1cccc2ccccc12	304 °C	64 °C	–	–	–	–	2.17
Clc1ccc(Cl)c(-c2c(Cl)cccc2Cl)c1	–	–	–	-4.65	–	8.45	–
CC(=O)c1cccc([N+](=O)[O-])c1	202 °C	81 °C	–	–	–	–	–
CCOC(=O)NCCOc1ccc(Oc2ccccc2)cc1	–	53.2 °C	–	-8.2	–	–	3
COP(=O)(OC)SCn1c(=O)oc2cc(Cl)cnc21	–	89 °C	–	-7.44	–	–	–
Nc1ccc(Nc2ccc(N)cc2)cc1	–	158 °C	–	–	–	–	–
COc1cc(N)ccc1C	251 °C	56.5 °C	–	–	–	–	–
Nc1ccc(O)c([N+](=O)[O-])c1	–	126 °C	–	–	–	–	–
O=C([O-])c1ccccc1.[NH4+]	–	194 °C	–	–	–	–	–
CCOO	95 °C	-100 °C	–	–	-5.53	–	–

Compound	boiling point	melting point	ready biodegradability	log10 vapour pressure (mmHg)	log10 Henry constant (atm·m³/mol)	log10 Koa	log10 Koc (L/kg)
CCC(C)OC(=O)CC(C)=O (stereo unspecified)	–	–	readily biodegradable	–	–	–	–
CCCCCC(=O)CC(C)=O	–	-18 °C	–	–	–	–	–
CC(C)(C)CC(=O)Cl	130 °C	–	–	–	–	–	–
Ic1cc(I)cc(I)c1	–	184 °C	–	–	–	–	–
CC(I)I	180 °C	–	–	–	–	–	–
Cl.N=C(N)N	–	182 °C	–	–	–	–	–
NC(=O)c1ccc(O)cc1	–	162 °C	–	–	–	–	–
CCCCCCCC(=O)OCC(COC(=O)CCCCCCC)OC(=O)CCCCCCC	–	10 °C	–	–	–	–	–
CCN(C(C)=O)c1ccccc1	260 °C	55 °C	–	–	–	–	–
CC(C)C1NC(=O)NC1=O (stereo unspecified)	–	–	not readily biodegradable	–	–	–	–
Clc1ccc2c(c1)Oc1cc(Cl)c(Cl)cc1O2	–	162 °C	–	-7.05	–	9.14	–
Nc1ccc2ncccc2c1	–	114 °C	–	-4.79	–	–	–
CCB(Cl)CC	78.5 °C	-84.6 °C	–	–	–	–	–
CC(C)CCOC(=O)OCCC(C)C	234 °C	–	–	–	–	–	–
CNC(=O)/C=C(\C)OP(=O)(OC)OC	–	55 °C	–	-5.66	–	–	0
CC(C)(Br)C(=O)Br	163 °C	–	–	–	–	–	–
Cn1cnc([N+](=O)[O-])c1Sc1ncnc2nc[nH]c12	–	244 °C	–	–	–	–	–
CC(=O)c1ccc(Cl)cc1	232 °C	20 °C	–	–	–	–	–

same assay, conditions: fish

Compound	log10 BCF	log10 biotransformation half-life (days)
Cc1ccc(N)cc1N	1.7	–
CC(C)C1=CC2=C(CC1)[C@@]1(C)CCC[C@@](C)(C(=O)O)[C@@H]1CC2	1.4	–
CCC(C)c1ccccc1OC(=O)NC (stereo unspecified)	1.41	-0.52
CC(C)(c1ccc(O)cc1)c1ccc(O)cc1	1.64	0.27
Clc1ccc(-c2c(Cl)ccc(Cl)c2Cl)c(Cl)c1	–	2.61
c1ccc2c(c1)ccc1cc3c(ccc4ccccc43)cc12	–	0.21
FC(F)(F)c1cccc(Cl)c1	2.35	0.64
CCCCC(CC)COP(=O)(OCC(CC)CCCC)OCC(CC)CCCC (stereo unspecified)	1.7	-0.29
Clc1cc(Cl)c(-c2c(Cl)c(Cl)c(Cl)c(Cl)c2Cl)c(Cl)c1Cl	–	2.66
CC(C)(C)O	0.7	-1.13
FC(F)(Cl)Cl	0.79	–
CCCCCc1ccc2c(c1)C(=O)c1ccccc1C2=O	2.94	0.2
CC1CCC(C(=O)O)C(C(=O)O)C1 (stereo unspecified)	0.38	–

From the OPERA property sets (Mansouri et al. 2018)
